From PubChem BioAssay (NCI) come the findings set out here.

Where “and” joins values, the source holds several entries; their conditions need not be identical. Equal values may be shown once.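 Assay format: 96-well plates, 48-hour exposure. GI50 is the concentration that inhibits growth by half. The concentration for full growth arrest is given as TGI.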

Test systems include BT-549 breast; COLO 205 colon; HCT-116 colon; LOX IMVI melanoma; MOLT-4 leukemia; NCI-H226 lung; NCI-H23 lung; NCI-H460 lung; OVCAR-5 ovarian; RXF 393 renal; SK-MEL-28 melanoma; SN12C renal; SNB-19 CNS; T-47D breast; NCI-H522 lung.
Common to all, as to assay: inhibition of tumour cell growth, NCI panel, 48 h

For the compound `CN(C)c1ccc(/C=C2\C[C@H]3[C@@H]4CC=C5C[C@@H](O)CC[C@]5(C)[C@H]4CC[C@]3(C)[C@H]2O)cc1`, the TGI in the test with BT-549 breast is 43.3 µM; with COLO 205 colon, 23 µM; in the test with HCT-116 colon it was 28.1 µM; with LOX IMVI melanoma, 27.1 µM; in the test on MOLT-4 leukemia it was > 100 µM; in the test with NCI-H226 lung it was 34.7 µM. Besides, the TGI with NCI-H23 lung is 35.6 µM; in the test with NCI-H460 lung it was 28.9 µM; in the test on OVCAR-5 ovarian, 36.2 µM; in the test with RXF 393 renal, 68 µM; in the test on SK-MEL-28 melanoma, 44.9 µM; with SN12C renal, 40 µM. For the same compound, the TGI in the test on SNB-19 CNS came out at 37.1 µM; in the test with T-47D breast it was 76.6 µM.

On to `CC(O)/C=C/C1OC(=O)CC1Nc1ccc(C=O)cc1` (stereo not drawn), for which the TGI was > 100 µM in the test on BT-549 breast; > 100 µM in the test with COLO 205 colon; > 100 µM with HCT-116 colon; > 100 µM in the test on LOX IMVI melanoma; 77.5 µM with MOLT-4 leukemia; > 100 µM in the test on NCI-H226 lung. Moreover, the TGI with NCI-H23 lung, with NCI-H460 lung, with OVCAR-5 ovarian, with RXF 393 renal, in the test on SK-MEL-28 melanoma and in the test with SN12C renal was > 100 µM each time. In addition, the TGI in the test with SNB-19 CNS and with T-47D breast was > 100 µM each time.

`Nc1nc(Cl)cc(NCC2(CO)CC=CC2)n1`: the TGI with BT-549 breast, with COLO 205 colon, in the test with HCT-116 colon, in the test on LOX IMVI melanoma, with MOLT-4 leukemia and with NCI-H226 lung was > 100 µM in each case. The TGI in the test with NCI-H460 lung, in the test on NCI-H522 lung, in the test on OVCAR-5 ovarian, in the test on RXF 393 renal, with SK-MEL-28 melanoma and in the test on SN12C renal was > 100 µM throughout. Also, the TGI with SNB-19 CNS and with T-47D breast was > 100 µM throughout.

For the compound `COC(OC)[C@@H]1OC[C@H](n2ccc(=O)[nH]c2=O)[C@H]1O`, the TGI in the test on BT-549 breast, with COLO 205 colon, with HCT-116 colon, in the test on LOX IMVI melanoma, in the test with MOLT-4 leukemia and with NCI-H226 lung was > 100 µM throughout. Further, the TGI with NCI-H23 lung, with NCI-H460 lung, with OVCAR-5 ovarian, in the test with RXF 393 renal, in the test with SK-MEL-28 melanoma and with SN12C renal was > 100 µM in each case. The TGI in the test with SNB-19 CNS and with T-47D breast was > 100 µM throughout.

`CC(=O)OC1OC(C2c3cccc(O)c3C(=O)c3c(O)cc(CO)cc32)C(O)C(O)C1O` (stereo not drawn): the TGI in the test with BT-549 breast is 22.6 µM and 47.1 µM; in the test with COLO 205 colon, 7.63 µM; with HCT-116 colon, 11.2 µM and 10.8 µM; with LOX IMVI melanoma, 9.75 µM and 9.49 µM; in the test with MOLT-4 leukemia, 52.2 µM and 66.5 µM; with NCI-H23 lung it was 11.3 µM and 13 µM. Further, the TGI in the test with NCI-H460 lung is 13.4 µM and 12.4 µM; in the test on NCI-H522 lung, 18.8 µM and 16.7 µM; with OVCAR-5 ovarian it was 11.7 µM and 18.1 µM; with RXF 393 renal, 29.8 µM and 55.5 µM; in the test with SK-MEL-28 melanoma, 9.63 µM; in the test with SN12C renal, 24.3 µM and 17.9 µM. In addition, the TGI in the test with SNB-19 CNS is 6.7 µM and 6.51 µM; in the test on T-47D breast, 27.3 µM and 15.6 µM. Moreover, the GI50 with COLO 205 colon is 2.7 µM.

`CCOC(=O)COc1cc(-c2ccccc2)nc2cc(F)ccc12`: the TGI in the test with BT-549 breast, with COLO 205 colon, in the test on HCT-116 colon, in the test with LOX IMVI melanoma, with MOLT-4 leukemia and with NCI-H226 lung was > 100 µM each time. In addition, the TGI in the test on NCI-H23 lung, in the test with OVCAR-5 ovarian, in the test on RXF 393 renal, in the test with SK-MEL-28 melanoma, in the test on SN12C renal and in the test with T-47D breast was > 100 µM each time.

Turning to `CCOC(=O)/C=C(\C(=O)OCC)n1cc(C)c(=O)n(Cc2cn(COCCOC(C)=O)nn2)c1=O`, the TGI in the test with BT-549 breast turned out to be 24.3 µM; in the test with COLO 205 colon, 11.1 µM; with HCT-116 colon, 80.4 µM; in the test with LOX IMVI melanoma it was 35.8 µM; in the test with MOLT-4 leukemia, 22 µM; in the test on NCI-H23 lung, 29.8 µM. In addition, the TGI was 30.2 µM in the test on NCI-H460 lung; 29.5 µM in the test on OVCAR-5 ovarian; 93.2 µM with RXF 393 renal; 48.1 µM in the test on SK-MEL-28 melanoma; 63.3 µM in the test with SN12C renal; 39 µM with SNB-19 CNS. In addition, the TGI in the test with T-47D breast was > 100 µM.

As to `CC(=O)O[C@H]1C(=O)[C@@]2(C)[C@H]([C@H](OC(=O)c3ccccc3)[C@]3(O)C[C@H](OC(=O)[C@H](O)[C@@H](NC(=O)C(C)(O)C(C)O)c4ccccc4)C(C)=C1C3(C)C)[C@]1(OC(C)=O)CO[C@@H]1C[C@@H]2O` (stereo partly drawn), the TGI was 3.45 µM with BT-549 breast; 0.254 µM in the test with COLO 205 colon; > 50 µM in the test on LOX IMVI melanoma; > 50 µM with MOLT-4 leukemia; > 50 µM with NCI-H23 lung; > 50 µM in the test on NCI-H460 lung. Moreover, the TGI was 0.341 µM in the test on NCI-H522 lung; 4.65 µM with OVCAR-5 ovarian; 1.81 µM in the test with RXF 393 renal; > 50 µM with SK-MEL-28 melanoma; > 50 µM in the test on SN12C renal; > 50 µM in the test on SNB-19 CNS. Besides, in the test on T-47D breast, the TGI is > 50 µM.

On to `CCOC(=O)CCCOc1cc(-c2ccccc2F)nc2cc3c(cc12)OCO3`, for which the TGI in the test on BT-549 breast is > 100 µM; in the test on COLO 205 colon it was > 100 µM; in the test with HCT-116 colon, > 100 µM; with LOX IMVI melanoma, > 100 µM; with MOLT-4 leukemia, 98 µM; in the test on NCI-H226 lung, > 100 µM. The TGI in the test with NCI-H23 lung, with OVCAR-5 ovarian, in the test with RXF 393 renal, in the test on SK-MEL-28 melanoma, in the test with SN12C renal and in the test on T-47D breast was > 100 µM each time. Moreover, the GI50 with HCT-116 colon is > 100 µM; in the test on NCI-H226 lung it was 48.7 µM; in the test with RXF 393 renal, 25 µM.

As for `N#CCc1nc(-c2cc3ccc(O)cc3oc2=O)cs1`, the TGI in the test on BT-549 breast, in the test on COLO 205 colon, with HCT-116 colon, in the test on LOX IMVI melanoma, in the test on MOLT-4 leukemia and in the test with NCI-H226 lung was > 100 µM throughout. For the same compound, the TGI in the test with NCI-H460 lung, with NCI-H522 lung, in the test on OVCAR-5 ovarian, in the test with RXF 393 renal, in the test with SK-MEL-28 melanoma and in the test with SN12C renal was > 100 µM throughout. The TGI with SNB-19 CNS and in the test with T-47D breast was > 100 µM in each case.
